Assay results reported in the supplement of paper PMC12137928.
Where a name gives a salt, the structure may show the parent alone.

Test system: HCT116
Conditions: 72 h
Procedure, shortened: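 Luminescence was read with CellTiter-Glo in HCT116 cells seeded at 250 per well in 1536-well plates. Signals were scaled between vehicle at 0% and positive control at -100%, then pattern-corrected. IC50 and maximal efficacy were obtained by fitting a four-parameter Hill equation.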

Row | Compound | IC50 cell viability (ICRF193 0 nM) | IC50 cell viability (ICRF193 200 nM)
1 | CS(=O)(=O)c1ccc([C@@H](O)[C@@H](CO)NC(=O)C(Cl)Cl)cc1 [Thiamphenicol] | > 45.8 µM | > 45.8 µM
2 | S=P(N1CC1)(N1CC1)N1CC1 [ThioTEPA] | > 45.8 µM | > 45.8 µM
3 | N#CSCC(=O)O [Thiocyanoacetic acid sodium salt] | > 45.8 µM | > 45.8 µM
4 | COc1ccc(CN(CCN(C)C)c2ncccn2)cc1 [Thonzylamine hydrochloride] | > 45.8 µM | > 45.8 µM
5 | Cc1cc(OI)c(C(C)C)cc1-c1cc(C(C)C)c(OI)cc1C [Thymol iodide] | > 45.8 µM | > 45.8 µM
6 | Cc1ccc(C(C)C)c(O)c1 [Thymol] | > 45.8 µM | > 45.8 µM
7 | Cc1ccsc1C(=CCCN1CCC[C@@H](C(=O)O)C1)c1sccc1C [Tiagabine hydrochloride] | > 45.8 µM | > 45.8 µM
8 | C=C[C@]1(C)C[C@@H](OC(=O)CSCCN(CC)CC)[C@]2(C)[C@H](C)CC[C@]3(CCC(=O)[C@H]32)[C@@H](C)[C@@H]1O [Tiamulin] | > 45.8 µM | > 45.8 µM
9 | CCN(CC)CCNC(=O)c1cc(S(C)(=O)=O)ccc1OC [Tiapride hydrochloride] | > 45.8 µM | > 45.8 µM
10 | CC(C(=O)O)c1ccc(C(=O)c2ccccc2)s1 (configuration not stated) [Tiaprofenic acid] | > 45.8 µM | > 45.8 µM
11 | O=C(Cn1c(=O)sc2ccc(Cl)cc21)N1CCN(CCO)CC1 [Tiaramide hydrochloride] | > 45.8 µM | > 45.8 µM
12 | C#C[C@]1(O)CC[C@H]2[C@@H]3[C@H](C)CC4=C(CCC(=O)C4)[C@H]3CC[C@@]21C [Tibolone] | > 45.8 µM | > 45.8 µM
13 | CC1(C)S[C@@H]2[C@H](NC(=O)[C@H](C(=O)O)c3ccsc3)C(=O)N2[C@H]1C(=O)O [Ticarcillin sodium] | > 45.8 µM | > 45.8 µM
14 | Clc1ccccc1CN1CCc2sccc2C1 [Ticlopidine hydrochloride] | > 45.8 µM | > 45.8 µM
15 | CN(C)c1cc(NC(=O)CNC(C)(C)C)c(O)c2c1C[C@H]1C[C@H]3[C@H](N(C)C)C(O)=C(C(N)=O)C(=O)[C@@]3(O)C(O)=C1C2=O [Tigecycline] | > 45.8 µM | > 45.8 µM
16 | CC[C@H]1OC(=O)C[C@@H](O)[C@H](C)[C@@H](O[C@@H]2O[C@H](C)[C@@H](O)[C@H](N(C)C)[C@H]2O)[C@@H](CCN2CCCCC2)C[C@@H](C)C(=O)/C=C/C(C)=C/[C@@H]1CN1CCCCC1 [Tildipirosin] | > 45.8 µM | > 45.8 µM

Row | Compound | IC50 cell viability (ICRF193 0 nM) | IC50 cell viability (ICRF193 200 nM)
17 | CCNC1(c2cccs2)CCCCC1=O (configuration not stated) [Tiletamine Hydrochloride] | > 45.8 µM | > 45.8 µM
18 | Cc1nc(C2CCCCC2)c(-c2ccc(S(N)(=O)=O)c(F)c2)o1 [Tilmacoxib] | > 45.8 µM | > 45.8 µM
19 | O=P(O)(O)C(Sc1ccc(Cl)cc1)P(=O)(O)O [Tiludronate disodium salt hydrate] | > 45.8 µM | > 45.8 µM
20 | COC1CC(=C(c2cccs2)c2cccs2)C[N+](C)(C)C1 (configuration not stated) [Timepidium bromide] | > 45.8 µM | > 45.8 µM
21 | CCS(=O)(=O)CCn1c([N+](=O)[O-])cnc1C [Tinidazole] | > 45.8 µM | > 45.8 µM
22 | CCOC(=O)c1c(N)sc2c1CCN(Cc1ccccc1)C2 [Tinoridine] | > 45.8 µM | > 45.8 µM
23 | CC(S)C(=O)NCC(=O)O (configuration not stated) [Tiopronin] | > 45.8 µM | > 45.8 µM
24 | C[N+]1(C)[C@@H]2C[C@@H](OC(=O)C(O)(c3cccs3)c3cccs3)C[C@H]1[C@@H]1O[C@@H]12 [Tiotropium (Bromide)] | > 45.8 µM | > 45.8 µM
25 | CCCOc1ccc2nc(NC(=O)OC)sc2c1 [Tioxidazole] | > 45.8 µM | > 45.8 µM
26 | N=C1CCCN1Cc1[nH]c(=O)[nH]c(=O)c1Cl [Tipiracil] | > 45.8 µM | > 45.8 µM
27 | CCC[C@@]1(CCc2ccccc2)CC(O)=C([C@H](CC)c2cccc(NS(=O)(=O)c3ccc(C(F)(F)F)cn3)c2)C(=O)O1 [Tipranavir] | > 45.8 µM | > 45.8 µM
28 | C[N+]12CCCCC1CCC(=C(c1cccs1)c1cccs1)C2 (configuration not stated) [Tiquizium bromide] | > 45.8 µM | > 45.8 µM
29 | CCCCS(=O)(=O)N[C@@H](Cc1ccc(OCCCCC2CCNCC2)cc1)C(=O)O [Tirofiban hydrochloride monohydrate] | > 45.8 µM | > 45.8 µM
30 | Clc1ccc2nsnc2c1NC1=NCCN1 [Tizanidine hydrochloride] | > 45.8 µM | > 45.8 µM
31 | COc1ccc(CNCC(O)COc2ccc3[nH]c(=O)ccc3c2)cc1OC (configuration not stated) [Toborinone] | > 45.8 µM | > 45.8 µM
